Data published in ChEMBL document CHEMBL2040771, “Discovery of a potent inhibitor of anaplastic lymphoma kinase with in vivo antitumor activity” (ACS Med Chem Lett, 2010).
The source made the active and inactive calls. The calls are words filed in the database; no cut-off is given here.

What was measured:
[1] = target: T1, ALK tyrosine kinase receptor (Homo sapiens, UniProt Q9UM73); test: Inhibition of NPM-ALK autophosphorylation in human KARPAS299 cells; assay type: cell-based; conditions: karpas-299
Target sequence in this assay (Q9UM73 19-1620 limits assumed): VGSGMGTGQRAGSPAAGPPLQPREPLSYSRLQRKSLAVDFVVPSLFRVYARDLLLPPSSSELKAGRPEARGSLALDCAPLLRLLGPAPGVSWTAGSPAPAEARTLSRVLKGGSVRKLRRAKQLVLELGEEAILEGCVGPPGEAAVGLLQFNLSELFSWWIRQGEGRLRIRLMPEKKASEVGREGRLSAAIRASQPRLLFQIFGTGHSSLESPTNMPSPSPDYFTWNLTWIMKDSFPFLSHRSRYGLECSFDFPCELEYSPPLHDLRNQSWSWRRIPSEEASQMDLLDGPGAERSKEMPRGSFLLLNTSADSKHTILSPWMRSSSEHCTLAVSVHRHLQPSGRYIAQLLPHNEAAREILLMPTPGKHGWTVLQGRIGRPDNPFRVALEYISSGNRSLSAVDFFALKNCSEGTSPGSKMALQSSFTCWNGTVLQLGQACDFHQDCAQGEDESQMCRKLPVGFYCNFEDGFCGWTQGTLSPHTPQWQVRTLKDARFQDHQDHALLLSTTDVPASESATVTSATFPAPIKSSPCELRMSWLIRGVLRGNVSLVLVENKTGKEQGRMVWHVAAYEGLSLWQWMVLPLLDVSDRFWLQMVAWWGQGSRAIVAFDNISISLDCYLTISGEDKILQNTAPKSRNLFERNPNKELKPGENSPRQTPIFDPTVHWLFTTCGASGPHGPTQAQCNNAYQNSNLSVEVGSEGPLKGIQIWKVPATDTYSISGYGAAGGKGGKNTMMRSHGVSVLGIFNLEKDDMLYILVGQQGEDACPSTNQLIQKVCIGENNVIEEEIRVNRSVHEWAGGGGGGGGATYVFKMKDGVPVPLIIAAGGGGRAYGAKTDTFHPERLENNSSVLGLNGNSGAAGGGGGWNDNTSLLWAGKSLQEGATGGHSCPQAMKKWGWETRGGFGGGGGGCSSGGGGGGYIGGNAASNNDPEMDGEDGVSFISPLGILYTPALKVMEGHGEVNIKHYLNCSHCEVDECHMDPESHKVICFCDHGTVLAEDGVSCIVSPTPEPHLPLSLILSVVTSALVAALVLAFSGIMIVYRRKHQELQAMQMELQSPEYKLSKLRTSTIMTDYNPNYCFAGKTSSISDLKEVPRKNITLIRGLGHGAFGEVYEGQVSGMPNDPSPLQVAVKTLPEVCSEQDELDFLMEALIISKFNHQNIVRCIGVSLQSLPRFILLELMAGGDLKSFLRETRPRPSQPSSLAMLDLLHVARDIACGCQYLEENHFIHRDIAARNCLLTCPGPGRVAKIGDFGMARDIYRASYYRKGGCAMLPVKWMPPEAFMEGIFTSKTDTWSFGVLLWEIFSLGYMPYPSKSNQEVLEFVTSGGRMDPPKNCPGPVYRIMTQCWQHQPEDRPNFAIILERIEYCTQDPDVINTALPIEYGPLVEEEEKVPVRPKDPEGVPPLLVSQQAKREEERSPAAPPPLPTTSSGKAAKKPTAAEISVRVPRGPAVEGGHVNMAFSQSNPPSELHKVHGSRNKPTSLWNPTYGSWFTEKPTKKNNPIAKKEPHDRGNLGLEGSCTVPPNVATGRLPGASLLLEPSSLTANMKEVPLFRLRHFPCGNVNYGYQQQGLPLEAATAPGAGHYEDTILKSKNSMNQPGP

[2] = target: T1, ALK tyrosine kinase receptor; test: Inhibition of ALK
Mus musculus [3] = test: Clearance with respect to hepatic blood flow in SCID mouse at 1 mg/kg, iv; assay type: ADME, organism-based, Liver; set-up: dose 1 mg/kg, route intravenous; conditions: in vivo
[4] = AUC in SCID mouse at 1 mg/kg, iv; assay type: ADME, organism-based; set-up: dose 1 mg/kg, route intravenous; conditions: plasma
[5] = Half life in SCID mouse at 10 mg/kg, po; assay type: ADME, organism-based; set-up: dose 10 mg/kg, route oral; conditions: in vivo
[6] = Tmax in SCID mouse at 10 mg/kg, po; assay type: ADME, organism-based; set-up: dose 10 mg/kg, route oral; conditions: in vivo
[7] = Half life in Sprague-Dawley rat at 1 mg/kg, iv; assay type: ADME, organism-based; set-up: dose 1 mg/kg, route intravenous; conditions: in vivo
Rattus norvegicus = test: Clearance with respect to hepatic blood flow in Sprague-Dawley rat at 1 mg/kg, iv; assay type: ADME, organism-based, Liver; set-up: dose 1 mg/kg, route intravenous; conditions: in vivo
[8] = Volume of distribution in Sprague-Dawley rat at 1 mg/kg, iv; assay type: ADME, organism-based; set-up: dose 1 mg/kg, route intravenous; conditions: in vivo
[9] = Tmax in Sprague-Dawley rat at 5 mg/kg, po; assay type: ADME, organism-based; set-up: dose 5 mg/kg, route oral; conditions: in vivo
[10] = target: Ribosomal protein S6 kinase alpha-1 (Homo sapiens) (UniProt Q15418); test: Inhibition of RPS6KA1 at 1 uM
[11] = target: Ribosomal protein S6 kinase alpha-1 (Homo sapiens) (UniProt Q15418); test: Inhibition of RPS6KA1 at 0.1 uM
[12] = target: Ribosomal protein S6 kinase alpha-2 (Homo sapiens) (UniProt Q15349); test: Inhibition of RPS6KA2 at 1 uM
[13] = target: Serine/threonine-protein kinase 33 (Homo sapiens) (UniProt Q9BYT3); test: Inhibition of STK33 at 0.1 uM
[14] = target: Non-receptor tyrosine-protein kinase TNK1 (Homo sapiens) (UniProt Q13470); test: Inhibition of TNK1 at 1 uM
Sequence of Non-receptor tyrosine-protein kinase TNK1 (Homo sapiens) (Q13470 whole entry): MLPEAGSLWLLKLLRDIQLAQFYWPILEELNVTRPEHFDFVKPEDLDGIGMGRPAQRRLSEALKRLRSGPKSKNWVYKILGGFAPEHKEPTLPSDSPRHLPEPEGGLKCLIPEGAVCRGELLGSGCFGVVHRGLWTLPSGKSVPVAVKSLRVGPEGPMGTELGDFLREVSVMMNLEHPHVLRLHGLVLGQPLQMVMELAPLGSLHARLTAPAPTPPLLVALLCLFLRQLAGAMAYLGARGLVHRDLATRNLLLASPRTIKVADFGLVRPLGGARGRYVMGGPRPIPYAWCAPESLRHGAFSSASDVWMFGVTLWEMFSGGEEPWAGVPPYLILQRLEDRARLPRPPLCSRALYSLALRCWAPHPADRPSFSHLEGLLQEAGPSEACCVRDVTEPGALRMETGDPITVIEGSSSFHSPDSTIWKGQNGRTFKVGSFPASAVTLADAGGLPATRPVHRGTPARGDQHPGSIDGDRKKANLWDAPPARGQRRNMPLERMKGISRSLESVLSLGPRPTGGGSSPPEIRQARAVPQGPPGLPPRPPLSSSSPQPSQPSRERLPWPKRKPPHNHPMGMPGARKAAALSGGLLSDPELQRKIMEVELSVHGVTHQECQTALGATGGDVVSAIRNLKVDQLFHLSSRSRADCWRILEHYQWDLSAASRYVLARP

[15] = target: Non-receptor tyrosine-protein kinase TNK1 (Homo sapiens) (UniProt Q13470); test: Inhibition of TNK1 at 0.1 uM
[16] = target: Dual specificity protein kinase TTK (Homo sapiens) (UniProt P33981); test: Inhibition of TTK at 1 uM
Sequence of Dual specificity protein kinase TTK (Homo sapiens) (P33981 whole entry): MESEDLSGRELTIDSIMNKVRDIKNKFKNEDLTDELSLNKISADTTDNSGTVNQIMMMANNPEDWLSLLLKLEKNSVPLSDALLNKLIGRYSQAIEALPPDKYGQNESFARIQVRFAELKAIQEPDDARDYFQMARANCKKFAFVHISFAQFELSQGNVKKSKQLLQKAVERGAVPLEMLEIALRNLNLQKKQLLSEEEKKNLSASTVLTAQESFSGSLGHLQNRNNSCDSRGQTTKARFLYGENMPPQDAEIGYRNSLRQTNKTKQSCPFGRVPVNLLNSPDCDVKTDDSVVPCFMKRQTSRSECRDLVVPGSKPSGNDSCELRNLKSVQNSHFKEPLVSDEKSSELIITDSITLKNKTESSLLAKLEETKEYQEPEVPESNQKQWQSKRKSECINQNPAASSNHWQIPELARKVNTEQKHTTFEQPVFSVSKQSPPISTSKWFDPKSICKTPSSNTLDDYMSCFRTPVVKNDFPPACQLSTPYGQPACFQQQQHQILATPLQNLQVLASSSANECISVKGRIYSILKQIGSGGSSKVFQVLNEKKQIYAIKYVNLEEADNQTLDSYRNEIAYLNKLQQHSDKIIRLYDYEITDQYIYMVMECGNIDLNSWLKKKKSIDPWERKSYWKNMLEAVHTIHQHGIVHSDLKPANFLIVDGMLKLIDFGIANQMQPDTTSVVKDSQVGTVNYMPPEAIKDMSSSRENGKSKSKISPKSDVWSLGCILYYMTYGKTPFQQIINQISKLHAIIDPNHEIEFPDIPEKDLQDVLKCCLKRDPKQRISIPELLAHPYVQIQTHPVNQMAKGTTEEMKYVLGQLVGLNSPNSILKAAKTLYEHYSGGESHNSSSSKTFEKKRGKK

[17] = target: Dual specificity protein kinase TTK (Homo sapiens) (UniProt P33981); test: Inhibition of TTK at 0.1 uM
Mus musculus [18] = test: Toxicity in SCID mouse xenografted with human SUP-M2 cells assessed as weight loss at 10 mg/kg, po BID for 12 days; assay type: organism-based; set-up: dose 10 mg/kg, route oral; conditions: in vivo, 288 h
Mus musculus [19] = test: Toxicity in SCID mouse xenografted with human SUP-M2 cells assessed as weight loss at 30 mg/kg, po BID for 12 days; assay type: organism-based; set-up: dose 30 mg/kg, route oral; conditions: in vivo, 288 h
Mus musculus [20] = test: Toxicity in SCID mouse xenografted with human SUP-M2 cells assessed as weight loss at 55 mg/kg, po BID for 12 days; assay type: organism-based; set-up: dose 55 mg/kg, route oral; conditions: in vivo, 288 h
[21] = Ratio of drug level in tumor to plasma in SCID mouse; assay type: ADME; conditions: tumor and plasma
[22] = AUC in Sprague-Dawley rat at 5 mg/kg, po; assay type: ADME, organism-based; set-up: dose 5 mg/kg, route oral; conditions: plasma
[23] = Oral bioavailability in Sprague-Dawley rat at 5 mg/kg; assay type: ADME, organism-based; conditions: in vivo
[24] = Half life in beagle dog at 1 mg/kg, iv; assay type: ADME, organism-based, Canis lupus familiaris; set-up: dose 1 mg/kg, route intravenous; conditions: in vivo
Canis familiaris = test: Clearance with respect to hepatic blood flow in beagle dog at 1 mg/kg, iv; assay type: ADME, organism-based, Canis lupus familiaris, Liver; set-up: dose 1 mg/kg, route intravenous; conditions: in vivo
[25] = AUC in beagle dog at 1 mg/kg, iv; assay type: ADME, organism-based, Canis lupus familiaris; set-up: dose 1 mg/kg, route intravenous; conditions: plasma
[26] = Tmax in beagle dog at 10 mg/kg, po; assay type: ADME, organism-based, Canis lupus familiaris; set-up: dose 10 mg/kg, route oral; conditions: in vivo
[27] = Oral bioavailability in beagle dog at 10 mg/kg; assay type: ADME, organism-based, Canis lupus familiaris; conditions: in vivo
[28] = Drug uptake in tumor lysates in SCID mouse xenografted with ALK-positive human SUP-M2 cells at 30 mg/kg, po bid for 12 days; assay type: ADME, organism-based, Neoplasm; set-up: dose 30 mg/kg, route oral; conditions: read-out: Drug uptake
[29] = target: T1, ALK tyrosine kinase receptor; test: Inhibition of NPM-ALK autophosphorylation in human KARPAS299 cells in presence of mouse plasma; assay type: cell-based; conditions: karpas-299
Target sequence in this assay (Q9UM73 19-1620 limits assumed): as the sequence (Q9UM73 19-1620 limits assumed) above

SUP-M2 = test: Antitumor activity against ALK-positive human SUP-M2 cells xenografted in SCID mouse at 10 mg/kg, po bid after 12 days; assay type: functional, organism-based; set-up: dose 10 mg/kg
[30] = test system: Receptor-type tyrosine-protein kinase FLT3 (Homo sapiens), P36888 [D835Y]; test: Inhibition of FLT3 D835Y mutant at 0.1 uM
[31] = test system: Receptor-type tyrosine-protein kinase FLT3 (Homo sapiens), P36888 [D835Y]; test: Inhibition of FLT3 D835Y mutant at 1 uM
[32] = test system: Receptor-type tyrosine-protein kinase FLT3 (Homo sapiens), P36888 [D835H]; test: Inhibition of FLT3 D835H mutant at 0.1 uM
[33] = target: Fibroblast growth factor receptor 4 (Homo sapiens) (UniProt P22455); test: Inhibition of FGFR4 at 0.1 uM
[34] = target: Tyrosine-protein kinase Fer (Homo sapiens) (UniProt P16591); test: Inhibition of FER at 0.1 uM
[35] = test system: Epidermal growth factor receptor (Homo sapiens), P00533 [L858R]; test: Inhibition of EGFR L858R mutant at 0.1 uM; assay type: protein assay
Sequence of Epidermal growth factor receptor (Homo sapiens), P00533 [L858R] (P00533 whole entry L858R): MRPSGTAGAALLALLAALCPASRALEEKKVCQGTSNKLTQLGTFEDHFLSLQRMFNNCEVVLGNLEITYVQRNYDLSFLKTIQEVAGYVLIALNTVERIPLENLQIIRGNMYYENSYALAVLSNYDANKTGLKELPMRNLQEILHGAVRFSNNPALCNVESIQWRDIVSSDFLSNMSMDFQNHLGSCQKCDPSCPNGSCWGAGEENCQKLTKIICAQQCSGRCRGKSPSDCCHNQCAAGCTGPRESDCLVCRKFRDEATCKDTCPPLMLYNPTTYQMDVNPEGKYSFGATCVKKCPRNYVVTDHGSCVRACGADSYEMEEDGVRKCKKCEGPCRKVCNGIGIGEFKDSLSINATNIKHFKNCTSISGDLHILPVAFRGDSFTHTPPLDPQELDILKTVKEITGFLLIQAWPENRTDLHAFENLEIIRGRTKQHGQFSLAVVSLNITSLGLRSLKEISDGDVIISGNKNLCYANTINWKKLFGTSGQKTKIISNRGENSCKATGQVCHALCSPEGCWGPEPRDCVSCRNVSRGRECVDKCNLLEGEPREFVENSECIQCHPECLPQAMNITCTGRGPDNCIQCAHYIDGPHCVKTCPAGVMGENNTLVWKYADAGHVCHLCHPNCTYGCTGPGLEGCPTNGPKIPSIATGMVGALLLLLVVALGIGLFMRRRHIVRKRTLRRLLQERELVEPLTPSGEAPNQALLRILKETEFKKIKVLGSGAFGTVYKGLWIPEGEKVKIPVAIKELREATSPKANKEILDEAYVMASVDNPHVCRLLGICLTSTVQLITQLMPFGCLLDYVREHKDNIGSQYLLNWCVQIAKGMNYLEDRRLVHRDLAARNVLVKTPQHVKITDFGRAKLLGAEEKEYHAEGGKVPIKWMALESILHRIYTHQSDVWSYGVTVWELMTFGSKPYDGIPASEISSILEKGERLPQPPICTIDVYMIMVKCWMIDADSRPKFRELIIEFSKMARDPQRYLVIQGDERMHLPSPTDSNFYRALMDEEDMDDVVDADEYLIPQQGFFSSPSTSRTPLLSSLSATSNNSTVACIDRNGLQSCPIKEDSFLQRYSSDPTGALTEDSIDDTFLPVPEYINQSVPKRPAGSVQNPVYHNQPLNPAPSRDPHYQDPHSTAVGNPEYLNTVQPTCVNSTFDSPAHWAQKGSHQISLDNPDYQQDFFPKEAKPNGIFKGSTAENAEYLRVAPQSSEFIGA

[36] = test system: Epidermal growth factor receptor (Homo sapiens), P00533 [L858R]; test: Inhibition of EGFR L858R mutant at 1 uM; assay type: protein assay
[37] = target: Epidermal growth factor receptor (Homo sapiens) (UniProt P04626+P00533+Q15303+P21860); test: Inhibition of EGFR L747 to E749 deletion, A750P mutant at 0.1 uM; assay type: protein assay
[38] = target: Protein-tyrosine kinase 6 (Homo sapiens) (UniProt Q13882); test: Inhibition of BRK at 0.1 uM
[39] = target: Mitogen-activated protein kinase kinase kinase 5 (Homo sapiens) (UniProt Q99683); test: Inhibition of ASK1 at 0.1 uM
[40] = target: Protein-tyrosine kinase 6 (Homo sapiens) (UniProt Q13882); test: Inhibition of BRK at 1 uM
[41] = target: NUAK family SNF1-like kinase 1 (Homo sapiens) (UniProt O60285); test: Inhibition of ARK5 at 0.1 uM
Sequence of NUAK family SNF1-like kinase 1 (Homo sapiens) (O60285 whole entry): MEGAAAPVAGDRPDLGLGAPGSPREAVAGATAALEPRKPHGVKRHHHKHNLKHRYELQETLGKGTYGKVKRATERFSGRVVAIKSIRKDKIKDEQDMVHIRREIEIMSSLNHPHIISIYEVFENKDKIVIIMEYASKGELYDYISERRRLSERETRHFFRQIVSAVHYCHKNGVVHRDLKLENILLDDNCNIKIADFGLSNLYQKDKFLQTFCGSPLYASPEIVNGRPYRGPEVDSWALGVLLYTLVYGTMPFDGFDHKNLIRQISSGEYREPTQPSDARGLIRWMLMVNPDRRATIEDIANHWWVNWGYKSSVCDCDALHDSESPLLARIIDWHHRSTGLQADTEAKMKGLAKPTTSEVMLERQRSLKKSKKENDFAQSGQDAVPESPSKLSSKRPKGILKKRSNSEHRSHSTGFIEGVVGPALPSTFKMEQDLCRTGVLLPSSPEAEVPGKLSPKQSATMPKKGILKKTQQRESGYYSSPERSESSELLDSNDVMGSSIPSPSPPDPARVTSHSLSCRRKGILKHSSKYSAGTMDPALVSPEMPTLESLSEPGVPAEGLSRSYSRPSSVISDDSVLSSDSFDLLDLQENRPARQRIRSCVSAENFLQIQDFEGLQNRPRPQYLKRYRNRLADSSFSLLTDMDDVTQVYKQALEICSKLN

[42] = target: Mitogen-activated protein kinase kinase kinase 5 (Homo sapiens) (UniProt Q99683); test: Inhibition of ASK1 at 1 uM
[43] = target: NUAK family SNF1-like kinase 1 (Homo sapiens) (UniProt O60285); test: Inhibition of ARK5 at 1 uM
[44] = test system: Receptor-type tyrosine-protein kinase FLT3 (Homo sapiens), P36888 [N841I]; test: Inhibition of FLT3 N841I mutant at 1 uM
[45] = target: Cyclin-G-associated kinase (Homo sapiens) (UniProt O14976); test: Inhibition of GAK at 0.1 uM
[46] = target: Mitogen-activated protein kinase 8 (Homo sapiens) (UniProt P45983); test: Inhibition of JNK1 at 0.1 uM
[47] = target: Mitogen-activated protein kinase 9 (Homo sapiens) (UniProt P45984); test: Inhibition of JNK2 at 0.1 uM
[48] = test system: Mast/stem cell growth factor receptor Kit (Homo sapiens), P10721 [D816V]; test: Inhibition of KIT D816V mutant at 0.1 uM
[49] = target: Leukocyte tyrosine kinase receptor (Homo sapiens) (UniProt P29376); test: Inhibition of LTK at 0.1 uM
[50] = target: Serine/threonine-protein kinase 3 (Homo sapiens) (UniProt Q13188); test: Inhibition of MST2 at 1 uM
[51] = target: Serine/threonine-protein kinase PAK 3 (Homo sapiens) (UniProt O75914); test: Inhibition of PAK3 at 1 uM
[52] = target: Platelet-derived growth factor receptor beta (Homo sapiens) (UniProt P09619); test: Inhibition of PDGFRB at 1 uM

CCN1C(=O)CCCc2c1ccc(Nc1ncc(Cl)c(N[C@H]3[C@@H](C(N)=O)[C@@H]4C=C[C@H]3C4)n1)c2OC showed an IC50 [1] of 45 nM, an IC50 [2] of 14 nM and a CL (Mus musculus [3]) of 41%. It also gave an AUC [4] of 446 ng·h/mL, a half-life [5] of 144 min and a Tmax [6] of 15 min. It also gave a half-life [7] of 48 min, a CL (Rattus norvegicus) of 20% and a Vd [8] of 0.9 L/kg. It also gave a Tmax [9] of 48 min, an inhibition [10] of 100% and an inhibition [11] of 68%. For the same compound, the inhibition [12] was 100%, the inhibition [13] was 84% and the inhibition [14] was 100%. It also gave an inhibition [15] of 93%, an inhibition [16] of 96% and an inhibition [17] of 96%. For the same compound, the Activity (Mus musculus [18]) was “Non-toxic”, the Activity (Mus musculus [19]) was “Non-toxic” and the Activity (Mus musculus [20]) was “Non-toxic”. The Kp [21] was 1.3, the AUC [22] was 4090 ng·h/mL and the bioavailability [23] was 64%. For the same compound, the half-life [24] was 66 min, the CL (Canis familiaris) was 58% and the AUC [25] was 773 ng·h/mL. The Tmax [26] was 1.1 h, the bioavailability [27] was 31% and the concentration at 288 h [28] was 405 ng/g. For the same compound, the IC50 [29] was 225 nM, the Activity (SUP-M2) was “inactive” and the inhibition [30] was 90%. It also gave an inhibition [31] of 96%, an inhibition [32] of 85% and an inhibition [33] of less than 50%. For the same compound, the inhibition [34] was 93%, the inhibition [35] was less than 50% and the inhibition [36] was 92%. For the same compound, the inhibition [37] was less than 50%, the inhibition [38] was 88% and the inhibition [39] was 72%. The inhibition [40] was 100%, the inhibition [41] was less than 50% and the inhibition [42] was 99%. It also gave an inhibition [43] of 92%, an inhibition [44] of 95% and an inhibition [45] of less than 50%. It also gave an inhibition [46] of 81%, an inhibition [47] of less than 50% and an inhibition [48] of 94%. It also gave an inhibition [49] of 96%, an inhibition [50] of 91% and an inhibition [51] of 90%. It also gave an inhibition [52] of 98%.
